Laboratory results taken from patent US20040076999A1, “Computer user interface facilitating acquiring and analyzing of biological specimen traits” (Baylor College of Medicine, priority 2002, published 2004).

Tests used:
flies = details: administered orally to flies; cited from earlier work
[1] = tested on: Drosophila expressing a mutant form of human Huntington (HD); assay: Motion tracking with Drosophila model of Huntington disease; type: in vivo; details: HD flies with drug versus wt flies
Description: (§1) Each movie is first scored individually to give one value per score and movie. A single movie is therefore considered to be the experimental base unit. Thereafter average values and standard errors for all scores are calculated from the movie score values for all repeats for a vial. Those averages and standard errors are the values shown in the PhenoScreen program. The data that is used in the scoring process are the trajectories of the corresponding movie. Each trajectory consists of a list of x- and y-coordinates of the position of the fly (and also size), with one list entry for every frame from when it starts moving in one frame until it stops in another.
Cross150: The Cross150 score is the number of trajectories that either crossed the line at x=150 in the negative x-direction (from bottom to top of the vial) during the movie, or that were already above that line at the start of the movie. […] In other words this score measures the number of detected flies that either managed to hold on to the tube or that managed to climb above the x=150 line within the length of the movie.
Drosophila expressing a mutant form of human Huntington (HD) have a functional deficit that is quantifiable, reproducible, and is suitable for automated high-throughput screening. Drosophila (or specimen) movements can be analyzed for various characteristics and/or traits. […]

wild-type flies = assay: Motion tracking with wild-type flies; type: in vivo, Drosophila; details: flies fed 0.1M or 0.05M LiCl, compared to controls; FIG. 32
Description: as §1
Speed: The Speed score is calculated in the same way as the X-Speed score, but instead of only using the length of the x-component of the speed vector, the length of the whole vector is used. That is, [length]=square root of ([x-length]^2+[y-length]^2).
Turning: The Turning score is calculated in the same way as the Speed score, but instead of using the length of the speed vector, the absolute angle between the current speed vector and the previous one is used, giving a value between […].
Stumbling: The Stumbling score is calculated in the same way as the Speed score, but instead of using the length of the speed vector, the absolute angle between the current speed vector and the direction of body orientation is used, giving a value between 0 and 90 degrees.
Several sets of wild-type flies were assayed under various conditions to test the motion tracking software. Lithium Chloride (LiCl), a treatment for bipolar affective disorder in humans, is also known to induce behavioral changes in Drosophila (Xia et al., 1997). […] The results of this assay are shown in the bar graph of FIG. 32.

Drosophila = details: feeding Drosophila; cited from earlier work

## NCC1(CC(=O)O)CCCCC1 [Gabapentin]
flies
  mean recovery times following seizure: reduce
  seizure: reduce

## O=C1NC(=O)C(c2ccccc2)(c2ccccc2)N1 [Phenyloin]
flies
  mean recovery times following seizure: reduce
  seizure: reduce

## CC1(C)O[C@@H]2[C@@H](CO[C@@]3(COS(N)(=O)=O)OC(C)(C)O[C@@H]23)O1 [Topiramate]
flies
  mean recovery times following seizure: reduce
  seizure: reduce

## CC(/C=C/C(=O)NO)=C\[C@@H](C)C(=O)c1ccc(N(C)C)cc1 [TSA]
[1]
  climbing ability: restore climbing ability for HD flies to almost the same level as for wt flies
  speed restored to wt level: the same is not true for speed

## [Cl-].[Li+] [LiCl, Lithium Chloride]
wild-type flies
  incidence of stumbling: increase incidence
  incidence of turning: increase incidence
  speed: significant reduction

## 4-phenylbutyrate [PBA]
Drosophila
  lifespan: significantly increase
  locomotor vigor: without diminution
